Laboratory results published in article PMC9643456, “Matching amino acids membrane preference profile to improve activity of antimicrobial peptides” (Communications Biology, 2022).
≈ marks a conversion by molar mass, not a printed value. Square brackets hold non-standard residues; d marks the D form. Peptide text beside a SMILES is read from it.

Legend:
E. coli ML35 = conditions: ML35, 18 h
Procedure: To assess antimicrobial activity, the MIC50 and MIC90 were measured using broth microdilution following CLSI guidelines. […] Each experiment was performed in triplicate. Meropenem (Sigma, Darmstadt, Germany) and colistin were used as control antibiotics. Cation-adjusted Mueller–Hinton broth (CAMHB) (Becton, Dickinson and Company, Franklin Lakes, USA) with supplied calcium (50 mg/L) and magnesium (10 mg/L) was used for the CLSI-test condition. Bacteria in midlog phase and peptides were separately diluted in CAMHB. The bacteria and peptide solutions were then mixed in 96-well polyethylene plates (SPL, Gyeonggi-do, Korea) and incubated for 18 h at 37 °C. The final concentration for bacteria was 5 × 10^5 CFU/ml. […] The MIC was defined to be the lowest concentration of peptide without visible turbidity by comparing with control antibiotics with the unaided eye. […] MICs in albumin and acetic acid solutions were measured using the same protocol but with 0.2% bovine serum albumin (Bovogen, Keilor, Australia), 0.01% acetic acid (Merck, New Jersey, USA), and CAMHB with both calcium and magnesium. In addition, MICs used in the antibiotic resistance acquisition test, the outer–inner membrane permeation test, and the transmembrane potential test and for FE-SEM were individually determined. […] Inhibitory activity unidentifiable by direct observation was determined by counting the CFUs. […]

[1] = tested on: MDR A. baumannii, MDR S. aureus or MDR K. pneumonia; assay: In vivo activity, subcutaneously infected mice; parameters: species or system BALB/c mice
Procedure: Female BALB/c mice (8-week old; n = 10) were purchased from orientbio (Gyeonggido, Republic of Korea) and fed under standardized environmental conditions for 1 week to be used to estimate time-dependent mouse survival rates. After inducing neutropenia by intraperitoneal injection of cyclophosphamide (150 mg/kg; Sigma), MDR S. aureus (KCCM 40510), MDR A. baumannii (colistin-resistant strain) or MDR K. pneumonia (colistin-resistant strain, NCCP 16125) was diluted in PBS and subcutaneously injected into mice (S. aureus, 1.5 × 10^8 CFU/ml; A. baumannii, 1 × 10^8 CFU/ml; K. pneumonia, 1 × 10^9 CFU/ml). After bacterial infection, 100 μl of WCopW43 peptide dissolved in distilled water (10 mg/ml) were injected (50 mg/kg) into each infected site, and survival was monitored every 12 h for 7 days. For A. baumannii infection, mice were intraperitoneally injected with mucin ([…], 1% in PBS, 300 μl) to suppress macrophages, and A. baumannii cells were incubated with mucin (1% in PBS) for 3 h before subcutaneous injection of 2 × 10^8 CFU/ml (0.2% mucin in PBS)[71]–[74]. Survival rates were calculated using the formula: 100% × (number of surviving mice/ten mice). One day after WCopW43 (50 mg/kg) injection, four mice were randomly selected and sacrificed by CO2 inhalation. […] Homogenized samples were spread onto MH agar plates, and CFU values were determined after incubation overnight at 37 °C.

## CC[C@@H](C)[C@@H](NC(=O)[C@@H](Cc1c[nH]c2ccccc12)NC(=O)[C@H](NC(=O)[C@@H](CC(C)C)NC(=O)[C@H](N)Cc1c[nH]c2ccccc12)C(C)C)C(=O)N[C@H](Cc1c[nH]c2ccccc12)C(=O)N[C@H](CCCNC(=N)N)C(=O)N[C@H](CCCNC(=N)N)C(=O)N[C@H](CCCNC(=N)N)C(N)=O [WCopW29] (H-[dW][dL][dV][dW][dI][dW][dR][dR][dR]-NH2)
E. coli ML35
  MIC at OM-IM permeation condition, E. coli ML35: 5 µM (≈ 6.85 µg/mL)

## CC[C@@H](C)[C@@H](NC(=O)[C@@H](Cc1c[nH]c2ccccc12)NC(=O)[C@@H](CCCNC(=N)N)NC(=O)[C@@H](CCCNC(=N)N)NC(=O)[C@H](N)CCCNC(=N)N)C(=O)N[C@H](Cc1c[nH]c2ccccc12)C(=O)N[C@@H](C(=O)N[C@@H](C(=O)N[C@H](Cc1c[nH]c2ccccc12)C(=O)N[C@H](CCCCN)C(N)=O)[C@H](C)CC)C(C)C [WCopW43] (H-[dR][dR][dR][dW][dI][dW][dV][dI][dW][dK]-NH2)
[1]; WCopW43 50 mg/kg s.c. 1 h after infection, tissue CFU one day after infection, vs PBS
  Decrease of bacterial burden (CFU): ~ 90%
[1]; WCopW43 50 mg/kg s.c., neutropenic BALB/c mice, n = 10, 7 days
  Survival compared with PBS-injected mice: survived longer
